Laboratory results as given in patent US8435576B2, “Use of cocoa polyphenols for treating a prostate hyperplasia, a specific cocoa extract and applications” (Barry Callebaut AG, priority 2005, dated 2013).

Experiments:
Assay type in all cases: in vivo, Wistar rats
[1] = tested on: cognitive performances after heat stroke; assay: Light extinction test after heat stroke; settings: day 18, after heat stroke
Protocol: (§1) After each daily administration of the product, the rats have free access to standard food granules.
(§2) On the 16th day, after fasting over night, the conscious rats of the various groups, with the exception of those of the vehicle group, are exposed to a heat stroke by placing them in a temperature-controlled chamber at 40° C. with a relative humidity of 50% for 120 minutes. The rats expressed their normal heat-regulating behavior. Immediately after the heat stroke, the rats with a rectal temperature of between 41.5° C. and 42° C. are included in the study. The rats returned to their cage at 22° C.
Three days after exposure to the heat stroke, on day 18 (D18), the rats are tested for the preventive antioxidant effects of the two CPEs on the learning performances, by using the light extinction test. The experimental device consists of a brightly lit cage (50×40×37 cm). The level of lighting in the test cage is 1200 lux.
During the test session, the rats are placed individually in the cage for 20 minutes to learn how to control the light environment.

[2] = tested on: cognitive performances after heat stroke; assay: Morris water labyrinth test after heat stroke
Protocol: as §1, §2
The Morris water labyrinth (1984) makes it possible to test the capacity for spatial orientation and the processes of learning and memorization. On the 20th and 21st days (D20 and D21), the rats are tested in the water labyrinth device to evaluate the spatial learning performances and their long-term memory. The experimental procedure consists in training rats, on the 20th day, to find a hidden platform (10 mm below the surface of the water) at a fixed point in the water tank (150 cm in diameter) in a series of five tests starting from the same starting point.
During the first test, the platform is placed against the wall of the tank. During the second test, the platform is placed 5 cm from the wall of the tank to allow the rats to find the platform easily. During the following three tests, the platform is placed 10 cm from the wall of the tank. Each test is followed by a 30-second rest period on the platform.
On the 21st day, the platform is placed at a distance from the wall of the tank in the same place as during the session on the 20th day and the long-term memory of the rats is tested in a single test.
The variable recorded in the water tank is the latency time required to get out of the water and reach the platform serving as a refuge arranged in the basin.

[3] = Body weight during 14-day oral treatment before heat stroke
Protocol: Eight male rats of Wistar/Han IGS strain (Charles River Laboratories, 69-St-Germain sur l'Arbresle—France) weighing 300 to 320 g are used. On receipt, the rats are housed, four to a cage, in 48×27×20 cm polycarbonate cages (U.A.R., 91-Epinay-Sur-Orge, France) in a controlled environment (50±5% humidity; temperature 22±1° C.; lighting from 20:00 h to 08:00 h, i.e. an inverted lightness/darkness cycle: 12 h/12 h).
The rats are weighed each day for the fourteen days of the treatment in order to determine their body weight change.

[4] = tested on: leukocyte free radicals; assay: Free radicals in the blood after heat stroke (pholasine chemiluminescence); settings: after heat stroke 40° C., 120 min; 14 days oral CPE1 22.9, CPE2 24.3, vitamin E 200 mg/kg/day
Protocol: as §1, §2
On the 16th day, 500 μl of blood samples were collected from the tail vein of 12 rats of each group, into tubes containing heparin to check the increase in free radicals after exposure to the heat stroke. On the basis of the chemiluminescence of pholasine, a photo-protein from the marine mollusc Pholas dactylus, the production of leukocyte free radicals was measured using a kit (Knight Scientific, Cell Activation Test Kits for Whole Blood with Adjuvant-K) by activation of the NADPH oxydase complex in diluted blood (In CytoTox laboratory, Nancy, France).

Cc1c(C)c2c(c(C)c1O)CC[C@@](C)(CCC[C@H](C)CCC[C@H](C)CCCC(C)C)O2 [Vitamin E, α-tocopherol]
Discrimination of the levers [1]: pressed the active lever more than the inactive lever
Number of active lever presses (ALP) (mean ± SEM) [1]: 27.28 ± 3.54
Number of inactive lever presses (ILP) (mean ± SEM) [1]: 17.60 ± 2.47
Total number of lever presses (Mean ± SEM) ([1]; n = 16/group): 42.38 ± 5.76
Latency for reaching the platform (Mean ± SEM) ([2]; Day 20, Test 1): 51.75 ± 6.45 s
Latency for reaching the platform (Mean ± SEM) ([2]; Day 20, Test 2): 25.38 ± 4.94 s
Latency for reaching the platform (Mean ± SEM) ([2]; Day 20, Test 3): 26.44 ± 5.20 s
Latency for reaching the platform (Mean ± SEM) ([2]; Day 20, Test 4): 17.75 ± 2.44 s
Latency for reaching the platform (Mean ± SEM) ([2]; Day 20, Test 5): 13.56 ± 1.37 s
Latency for reaching the platform (Mean ± SEM) ([2]; Day 21, Test 6): 14.69 ± 2.22 s
Body weight ([3]; Day 1, oral daily CPE1 22.9, CPE2 24.3, vitamin E 200 mg/kg): 320.9 ± 15.4 g
Body weight ([3]; Day 3): 328.9 ± 15.8 g
Body weight ([3]; Day 4): 330.6 ± 15.7 g
Body weight ([3]; Day 5): 333.9 ± 16.5 g
Body weight ([3]; Day 6): 336.6 ± 15.9 g
Body weight ([3]; Day 7): 339.4 ± 17.3 g
Body weight ([3]; Day 8): 342.1 ± 17.2 g
Body weight ([3]; Day 11): 351.6 ± 18.0 g
Body weight ([3]; Day 12): 354.6 ± 18.8 g
Free radical content in the plasma on the 16th day (Mean ± SEM) [4]: 311.15 ± 20.56 mV
